How the values were obtained:
Test in all cases: relative viability (nuclei count vs DMSO), 5 days (fraction); higher = more cells survive
[1] = compound: CN[C@@H]1C[C@H]2O[C@@](C)([C@@H]1OC)n1c3ccccc3c3c4c(c5c6ccccc6n2c5c31)C(=O)NC4 [Staurosporine] + CS(=O)(=O)N1CCN(Cc2cc3nc(-c4cccc5[nH]ncc45)nc(N4CCOCC4)c3s2)CC1 [Pictilisib] (partner 1 µM)
Summary of the method: (§1)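 Relative viability is defined as nuclei in treated wells over nuclei in vehicle wells. Duplicate plates were run and medians reported. Lung cancer cell lines in 1536-well plates were dosed by pin tool one day after seeding, with one drug or with a fixed anchor-drug dose plus five library-drug doses (not always all listed) in √10 steps, and nuclei were counted after 5 days.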

[2] = compound: CN[C@@H]1C[C@H]2O[C@@](C)([C@@H]1OC)n1c3ccccc3c3c4c(c5c6ccccc6n2c5c31)C(=O)NC4 [Staurosporine] + O=C(CCCCCCC(=O)Nc1ccccc1)NO [Vorinostat] (partner 1 µM)
Summary of the method: as §1

[3] = compound: O=c1[nH]cc(F)c(=O)[nH]1 [5-Fluorouracil] + Nc1ncn([C@H]2C[C@H](O)[C@@H](CO)O2)c(=O)n1 [Decitabine] (partner 2 µM)
Summary of the method: as §1

Cell Line UMC-11 has a relative viability ([1]; first compound 0.005 µM) of 0.841, a relative viability ([1]; first compound 0.01581 µM) of 0.115 and a relative viability ([1]; first compound 0.05 µM) of 0.207. It also gave a relative viability ([1]; first compound 0.1581 µM) of 0.101, a relative viability ([1]; first compound 0.5 µM) of 0.0718 and a relative viability ([2]; first compound 0.005 µM) of 0.343. It also gave a relative viability ([2]; first compound 0.01581 µM) of 0.136, a relative viability ([2]; first compound 0.05 µM) of 0.0975 and a relative viability ([2]; first compound 0.1581 µM) of 0.0825. It also gave a relative viability ([2]; first compound 0.5 µM) of 0.066, a relative viability ([3]; first compound 0.02 µM) of 0.593 and a relative viability ([3]; first compound 0.2 µM) of 0.565. For the same cell line, the relative viability ([3]; first compound 0.6325 µM) was 0.497.

Source: the supplement of paper PMC10307832
